Activity calls are given as the source filed them. The calls are words filed in the database; no cut-off is given here.
What was measured:
HCT-116 [1] = experiment: cells; type: functional; conditions: Homo sapiens, time 72 hrs, read-out: GI
NCI-H460 [2] = experiment: cells; type: functional, cell-based; conditions: Homo sapiens, NCI-H460, 72 h
Description: Antiproliferative activity against human H460 cells assessed as inhibition of cell growth incubated for 72 hrs by CCK-8 assay

Histone deacetylase 1 = Histone deacetylase 1 (Homo sapiens, UniProt Q13547); experiment: Inhibition of human recombinant HDAC1 preincubated for 10 mins followed by addition of substrate fluor De Lys SIRT1 deacetylase measured after 30 mins by fluorescent plate reader analysis
Chain of Histone deacetylase 1 (Q13547 whole entry): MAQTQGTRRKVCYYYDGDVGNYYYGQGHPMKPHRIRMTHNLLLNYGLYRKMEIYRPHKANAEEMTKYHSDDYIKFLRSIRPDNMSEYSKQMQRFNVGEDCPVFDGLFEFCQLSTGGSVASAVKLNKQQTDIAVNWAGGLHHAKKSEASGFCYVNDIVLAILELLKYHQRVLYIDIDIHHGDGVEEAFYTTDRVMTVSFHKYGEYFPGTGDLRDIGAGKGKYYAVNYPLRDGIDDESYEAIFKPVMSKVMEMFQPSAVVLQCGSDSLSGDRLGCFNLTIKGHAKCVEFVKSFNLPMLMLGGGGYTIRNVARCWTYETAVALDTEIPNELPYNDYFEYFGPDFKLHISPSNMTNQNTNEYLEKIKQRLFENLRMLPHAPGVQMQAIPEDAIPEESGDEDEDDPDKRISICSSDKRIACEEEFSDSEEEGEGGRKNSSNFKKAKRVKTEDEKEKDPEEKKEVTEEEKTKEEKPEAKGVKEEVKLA

[3] = target: Histone deacetylase 3/NCoR1 (Homo sapiens, UniProt O15379); experiment: Inhibition of human recombinant HDAC3/NCOR1 complex preincubated for 10 mins followed by addition of substrate fluor De Lys SIRT1 deacetylase measured after 30 mins by fluorescent plate reader analysis; type: protein-complex assay
Chain of Histone deacetylase 3/NCoR1 (O15379 whole entry): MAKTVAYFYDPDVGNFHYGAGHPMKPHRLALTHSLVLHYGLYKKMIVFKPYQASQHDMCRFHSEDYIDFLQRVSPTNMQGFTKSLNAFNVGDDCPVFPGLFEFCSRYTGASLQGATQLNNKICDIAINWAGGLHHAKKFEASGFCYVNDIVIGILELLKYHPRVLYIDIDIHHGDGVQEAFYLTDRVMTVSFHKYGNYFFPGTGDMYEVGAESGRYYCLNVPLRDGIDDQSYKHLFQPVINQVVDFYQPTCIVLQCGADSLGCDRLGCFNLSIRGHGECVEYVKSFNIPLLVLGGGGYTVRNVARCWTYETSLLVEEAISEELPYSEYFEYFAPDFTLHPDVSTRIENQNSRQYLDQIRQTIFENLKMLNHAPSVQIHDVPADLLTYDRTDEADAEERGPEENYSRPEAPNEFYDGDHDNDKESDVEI
Chain of Histone deacetylase 3/NCoR1 (O75376 whole entry, further chain): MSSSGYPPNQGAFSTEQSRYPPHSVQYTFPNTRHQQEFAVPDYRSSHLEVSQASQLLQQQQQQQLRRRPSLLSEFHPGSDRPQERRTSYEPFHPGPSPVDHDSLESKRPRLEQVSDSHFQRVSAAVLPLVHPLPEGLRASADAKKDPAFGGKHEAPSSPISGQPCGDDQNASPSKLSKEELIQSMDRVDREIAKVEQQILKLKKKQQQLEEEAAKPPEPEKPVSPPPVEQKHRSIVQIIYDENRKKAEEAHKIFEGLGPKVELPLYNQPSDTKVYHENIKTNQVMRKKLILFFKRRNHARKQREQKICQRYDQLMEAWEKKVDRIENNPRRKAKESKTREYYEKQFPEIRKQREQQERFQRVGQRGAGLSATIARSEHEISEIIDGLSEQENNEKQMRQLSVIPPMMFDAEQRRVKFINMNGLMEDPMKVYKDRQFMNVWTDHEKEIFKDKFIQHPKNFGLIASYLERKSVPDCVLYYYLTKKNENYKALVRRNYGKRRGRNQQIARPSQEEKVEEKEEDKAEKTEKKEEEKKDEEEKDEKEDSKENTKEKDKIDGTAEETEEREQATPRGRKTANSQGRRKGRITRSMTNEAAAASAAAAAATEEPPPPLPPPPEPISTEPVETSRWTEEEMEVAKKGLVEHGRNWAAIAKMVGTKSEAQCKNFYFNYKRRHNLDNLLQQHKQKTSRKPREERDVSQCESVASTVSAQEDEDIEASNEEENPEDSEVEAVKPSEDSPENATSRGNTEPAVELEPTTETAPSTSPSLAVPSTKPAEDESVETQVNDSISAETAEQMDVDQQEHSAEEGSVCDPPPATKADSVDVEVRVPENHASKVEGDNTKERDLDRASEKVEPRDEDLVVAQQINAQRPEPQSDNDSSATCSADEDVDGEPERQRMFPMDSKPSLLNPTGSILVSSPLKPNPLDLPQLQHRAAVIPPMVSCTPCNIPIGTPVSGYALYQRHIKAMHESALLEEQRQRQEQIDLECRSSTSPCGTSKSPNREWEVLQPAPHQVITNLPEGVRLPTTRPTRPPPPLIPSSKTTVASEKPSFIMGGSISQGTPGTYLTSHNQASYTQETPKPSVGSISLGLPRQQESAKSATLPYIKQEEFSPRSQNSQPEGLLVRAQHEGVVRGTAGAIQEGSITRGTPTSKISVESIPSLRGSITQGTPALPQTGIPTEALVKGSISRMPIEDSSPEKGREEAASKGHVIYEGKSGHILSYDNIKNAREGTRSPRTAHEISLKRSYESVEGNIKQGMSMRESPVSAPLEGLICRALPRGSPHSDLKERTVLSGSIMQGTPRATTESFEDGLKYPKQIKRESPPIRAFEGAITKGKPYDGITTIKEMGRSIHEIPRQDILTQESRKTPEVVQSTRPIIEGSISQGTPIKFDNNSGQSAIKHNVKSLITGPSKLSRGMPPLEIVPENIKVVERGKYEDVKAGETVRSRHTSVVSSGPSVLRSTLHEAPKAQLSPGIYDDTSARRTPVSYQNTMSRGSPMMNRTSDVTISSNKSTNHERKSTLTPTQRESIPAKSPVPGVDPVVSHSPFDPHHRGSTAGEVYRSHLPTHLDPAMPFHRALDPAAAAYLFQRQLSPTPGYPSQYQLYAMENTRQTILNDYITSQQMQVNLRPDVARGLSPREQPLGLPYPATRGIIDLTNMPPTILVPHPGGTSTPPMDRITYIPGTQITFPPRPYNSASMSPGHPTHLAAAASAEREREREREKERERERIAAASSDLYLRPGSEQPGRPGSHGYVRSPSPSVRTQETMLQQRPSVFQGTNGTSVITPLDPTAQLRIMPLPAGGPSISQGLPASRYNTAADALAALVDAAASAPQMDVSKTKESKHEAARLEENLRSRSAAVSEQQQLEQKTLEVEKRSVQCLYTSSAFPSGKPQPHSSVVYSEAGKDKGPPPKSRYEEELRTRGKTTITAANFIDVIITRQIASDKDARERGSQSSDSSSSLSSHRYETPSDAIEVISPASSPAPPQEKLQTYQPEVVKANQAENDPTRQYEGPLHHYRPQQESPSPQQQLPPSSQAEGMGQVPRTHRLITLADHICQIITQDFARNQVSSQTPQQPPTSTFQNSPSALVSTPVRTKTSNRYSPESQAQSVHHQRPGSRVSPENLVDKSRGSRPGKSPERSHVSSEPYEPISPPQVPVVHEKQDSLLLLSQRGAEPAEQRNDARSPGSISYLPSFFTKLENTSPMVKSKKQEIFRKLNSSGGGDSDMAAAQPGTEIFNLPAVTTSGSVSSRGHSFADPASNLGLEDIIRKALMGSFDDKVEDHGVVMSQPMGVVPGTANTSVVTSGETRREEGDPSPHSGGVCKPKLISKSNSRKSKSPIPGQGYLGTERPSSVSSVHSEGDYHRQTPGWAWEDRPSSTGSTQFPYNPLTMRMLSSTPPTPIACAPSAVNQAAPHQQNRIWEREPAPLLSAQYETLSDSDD

CDK2/Cyclin A2 = CDK2/Cyclin A2 (Homo sapiens, UniProt P24941); experiment: Inhibition of recombinant human full length CDK2/cyclin A2 incubated for 10 mins by ADP-Glo reagent assay; type: protein-complex assay
CDK6/cyclin D3 = CDK6/cyclin D3 (Homo sapiens, UniProt Q00534); experiment: Inhibition of recombinant human full length CDK6/cyclin D3 incubated for 10 mins by ADP-Glo reagent assay; type: protein-complex assay
Chain of CDK6/cyclin D3 (P30281 whole entry): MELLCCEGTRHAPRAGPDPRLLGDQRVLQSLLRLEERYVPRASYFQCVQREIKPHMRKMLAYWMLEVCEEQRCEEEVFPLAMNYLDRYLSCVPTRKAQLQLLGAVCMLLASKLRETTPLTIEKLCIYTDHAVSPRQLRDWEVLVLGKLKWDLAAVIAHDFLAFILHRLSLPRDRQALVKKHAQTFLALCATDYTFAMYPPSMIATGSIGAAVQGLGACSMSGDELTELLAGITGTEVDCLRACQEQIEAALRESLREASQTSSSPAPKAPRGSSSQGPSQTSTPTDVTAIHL
Chain of CDK6/cyclin D3 (Q00534 whole entry): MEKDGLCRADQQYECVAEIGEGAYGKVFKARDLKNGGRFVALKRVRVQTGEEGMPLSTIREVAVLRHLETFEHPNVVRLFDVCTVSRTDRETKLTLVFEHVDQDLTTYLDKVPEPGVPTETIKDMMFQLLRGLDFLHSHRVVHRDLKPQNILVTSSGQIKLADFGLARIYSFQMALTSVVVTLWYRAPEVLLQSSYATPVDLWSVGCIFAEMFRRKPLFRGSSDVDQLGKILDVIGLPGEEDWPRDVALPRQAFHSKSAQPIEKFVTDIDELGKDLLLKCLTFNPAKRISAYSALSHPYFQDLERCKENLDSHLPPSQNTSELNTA

[4] = target: Cyclin-dependent kinase 7/ cyclin H (Homo sapiens, UniProt P50613); experiment: Inhibition of recombinant human full length CDK7/cyclin H1 expressed in Sf9 cells incubated for 10 mins by ADP-Glo reagent assay
Chain of Cyclin-dependent kinase 7/ cyclin H (P51946 whole entry): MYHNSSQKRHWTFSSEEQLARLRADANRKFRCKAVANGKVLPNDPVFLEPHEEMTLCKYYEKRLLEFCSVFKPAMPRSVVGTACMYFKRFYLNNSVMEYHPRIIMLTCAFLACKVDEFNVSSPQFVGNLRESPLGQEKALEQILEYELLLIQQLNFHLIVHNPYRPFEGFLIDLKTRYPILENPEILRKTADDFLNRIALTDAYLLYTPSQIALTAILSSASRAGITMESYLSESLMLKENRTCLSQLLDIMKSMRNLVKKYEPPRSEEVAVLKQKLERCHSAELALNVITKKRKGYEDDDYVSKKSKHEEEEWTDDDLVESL
Chain of Cyclin-dependent kinase 7/ cyclin H (P50613 whole entry): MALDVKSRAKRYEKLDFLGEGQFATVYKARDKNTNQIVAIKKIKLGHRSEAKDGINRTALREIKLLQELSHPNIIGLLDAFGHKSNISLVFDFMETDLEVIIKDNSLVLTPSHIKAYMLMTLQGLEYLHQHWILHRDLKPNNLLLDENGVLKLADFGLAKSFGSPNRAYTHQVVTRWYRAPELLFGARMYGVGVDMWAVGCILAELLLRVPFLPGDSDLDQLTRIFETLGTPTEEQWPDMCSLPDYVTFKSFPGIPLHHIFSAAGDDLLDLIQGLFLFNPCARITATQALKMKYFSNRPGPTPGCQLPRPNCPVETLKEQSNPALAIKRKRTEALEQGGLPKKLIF

NCI-H460 [5] = experiment: Antimigratory activity against human H460 cells assessed as inhibition of cell migration at 0.5 uM measured after 48 hrs by cell scratch assay; type: functional, cell-based
A-375 [6] = experiment: Cell cycle arrest in human A375 cells assessed as increase in number of cells at G2/M phase at 0.5 to 2 uM incubated for 24 hrs by propidium iodide staining based flow cytometry; type: functional; conditions: dose 0.5-2 µM
HCT-116 [7] = experiment: Cell cycle arrest in human HCT116 cells assessed as increase in number of cells at G2/M phase at 0.5 to 2 uM incubated for 24 hrs by propidium iodide staining based flow cytometry; type: functional; conditions: dose 0.5-2 µM
HeLa [8] = experiment: Cell cycle arrest in human HeLa cells assessed as increase in number of cells at G2/M phase at 0.5 to 2 uM incubated for 24 hrs by propidium iodide staining based flow cytometry; type: functional; conditions: dose 0.5-2 µM
A-375 [9] = experiment: Induction of apoptosis in human A375 cells assessed as number of apoptotic cells at 2 uM incubated for 48 hrs by annexin V-FITC/PI based flow cytometric analysis relative to control; type: functional
HeLa [10] = experiment: Induction of apoptosis in human HeLa cells assessed as number of apoptotic cells at 0.5 to 2 uM incubated for 48 hrs by annexin V-FITC/PI based flow cytometric analysis; type: functional, cell-based; conditions: dose 0.5-2 µM
[11] = target: Cyclin-dependent kinase 2 (Homo sapiens) (UniProt P24941); experiment: Inhibition of CDK2 in human A375 cells at 1 uM measured after 12 hr by DAPI staining based immunofluorescence analysis; type: cell-based; conditions: A-375
[12] = Tmax in ICR mouse at 20 mg/kg, ip by LC-MS/MS analysis; type: ADME, organism-based; conditions: in vivo
[13] = Biovailability in ICR mouse at 20 mg/kg, ip; type: ADME, organism-based; conditions: in vivo
[14] = target: Histone deacetylase (Homo sapiens) (UniProt Q13547+O15379+Q9UBN7+Q92769+Q9UQL6+Q8WUI4+Q9BY41+Q96DB2+P56524+Q9UKV0+Q969S8); experiment: Inhibition of HDAC in human A375 cells assessed as increase in acetylation of H3K9 at 1 uM measured after 12 hr by DAPI staining based immunofluorescence analysis; type: cell-based; conditions: A-375
A-375 [15] = experiment: Induction of ROS generation in human A375 cells at 1 uM measured after 24 hrs by fluorescence microscopic analysis
[16] = Toxicity in BALB/C nude mouse xenografted with HCT116 cells assessed as effect on body weight at 12.5 to 25 mg/kg, ip once daily for 21 days; type: organism-based; conditions: in vivo, 504 h, dose 12.5-25 mg/kg, time 21 day
HCT-116 [17] = experiment: Antitumor activity against human HCT116 cells xenografted in BALB/C nude mouse assessed reduction in tumor growth at 12.5 mg/kg, ip once daily for 21 days relative to control; type: functional; conditions: HCT-116, ip, 504 h, time 21 day, read-out: TGI
HCT-116 [18] = experiment: Antitumor activity against human HCT116 cells xenografted in BALB/C nude mouse assessed reduction in tumor growth at 25 mg/kg, ip once daily for 21 days relative to control; type: functional; conditions: HCT-116, ip, 504 h, time 21 day, read-out: TGI

Row | IC50 (NCI-H460 [2]) | IC50 (Histone deacetylase 1) | IC50 [3] | IC50 (CDK2/Cyclin A2) | IC50 (CDK6/cyclin D3) | IC50 [4] | inhibition [11] | Tmax [12] | bioavailability [13] | inhibition [14] | SMILES | inhibition of growth at 8 µM (HCT-116 [1]) | inhibition (NCI-H460 [5]) | Activity (A-375 [6]) | Activity (HCT-116 [7]) | Activity (HeLa [8]) | Activity (A-375 [9]) | Activity (HeLa [10]) | Activity (A-375 [15]) | further results
1 | 2.63 µM | 0.24 µM | > 1 µM | 0.00056 µM | > 1 µM | > 1 µM | Active | 1 h | 27.8% | Active | Nc1ccccc1NC(=O)Cc1ccc(NC(=O)c2n[nH]cc2NC(=O)c2c(Cl)cccc2Cl)cc1 | 78% | Active | Active | Active | Active | 73.08% | Active | Active | –
2 | 4.19 µM | 0.0064 µM | 0.045 µM | 0.0003 µM | > 1 µM | > 1 µM | Active | 2 h | 63.6% | Active | Nc1ccccc1NC(=O)c1ccc(CNC(=O)c2n[nH]cc2NC(=O)c2c(Cl)cccc2Cl)cc1 | 73.8% | Active | Active | Active | Active | 97.22% | Active | Active | Activity [16]: Non-Toxic; inhibition in vivo at 12.5 mg/kg (HCT-116 [17]): 37%; inhibition in vivo at 25 mg/kg (HCT-116 [18]): 51%

Source: ChEMBL document CHEMBL4680185, “Discovery of novel cyclin-dependent kinase (CDK) and histone deacetylase (HDAC) dual inhibitors with potent in vitro and in vivo anticancer activity” (Eur J Med Chem, 2020)
